Results as given in PubChem BioAssay AID588737 (Vanderbilt Specialized Chemistry Center, 2011).

Target: Metabotropic glutamate receptor 5 (Homo sapiens) (UniProt P41594)
Assay: PubChem AID 588737
Details: HEK293A hmGluR5 calcium fluorescence, glutamate CRC fold shift, at 10 µM, stronger effect = higher value; for Emax: glutamate max response with compound

Chain of Metabotropic glutamate receptor 5 (Homo sapiens) (P41594 whole entry, looked up): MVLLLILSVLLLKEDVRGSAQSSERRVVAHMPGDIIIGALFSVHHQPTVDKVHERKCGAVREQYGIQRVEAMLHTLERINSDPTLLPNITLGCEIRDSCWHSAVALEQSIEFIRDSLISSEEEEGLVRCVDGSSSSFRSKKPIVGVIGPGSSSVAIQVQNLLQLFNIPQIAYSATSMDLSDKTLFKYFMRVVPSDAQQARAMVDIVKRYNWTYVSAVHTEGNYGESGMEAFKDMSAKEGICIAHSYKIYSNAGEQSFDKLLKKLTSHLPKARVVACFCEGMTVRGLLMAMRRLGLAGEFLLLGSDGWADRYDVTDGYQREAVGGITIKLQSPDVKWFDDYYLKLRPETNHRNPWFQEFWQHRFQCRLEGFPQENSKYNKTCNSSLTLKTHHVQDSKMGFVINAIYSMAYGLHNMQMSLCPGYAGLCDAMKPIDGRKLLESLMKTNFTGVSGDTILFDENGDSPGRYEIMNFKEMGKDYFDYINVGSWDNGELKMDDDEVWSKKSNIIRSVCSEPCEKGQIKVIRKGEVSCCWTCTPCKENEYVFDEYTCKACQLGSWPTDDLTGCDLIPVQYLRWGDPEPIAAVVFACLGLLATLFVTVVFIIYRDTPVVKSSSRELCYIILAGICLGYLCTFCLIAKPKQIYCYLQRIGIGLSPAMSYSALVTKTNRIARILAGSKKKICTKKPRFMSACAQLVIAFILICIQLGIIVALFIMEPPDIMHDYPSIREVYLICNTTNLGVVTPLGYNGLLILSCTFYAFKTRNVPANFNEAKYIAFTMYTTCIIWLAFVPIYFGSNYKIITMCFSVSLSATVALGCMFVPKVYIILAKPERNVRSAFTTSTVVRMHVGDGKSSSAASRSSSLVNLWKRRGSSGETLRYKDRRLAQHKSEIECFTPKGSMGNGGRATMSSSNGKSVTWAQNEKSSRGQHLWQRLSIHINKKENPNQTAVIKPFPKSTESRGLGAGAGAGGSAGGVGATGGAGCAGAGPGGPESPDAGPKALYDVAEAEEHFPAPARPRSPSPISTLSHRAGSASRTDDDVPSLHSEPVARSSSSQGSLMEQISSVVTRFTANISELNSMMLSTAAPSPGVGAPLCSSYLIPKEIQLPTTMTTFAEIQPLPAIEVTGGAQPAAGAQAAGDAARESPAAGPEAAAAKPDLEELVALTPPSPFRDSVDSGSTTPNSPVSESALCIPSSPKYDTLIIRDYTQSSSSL

Row | fold shift | Emax [%] | SMILES
1 | 9.79 | 95 | C[C@@H](NC(=O)c1ccc(C#Cc2cccc(F)c2)cn1)C(C)(C)O
2 | 2.19 | 88 | CC1(NC(=O)c2ccc(C#Cc3cccc(F)c3)cn2)COC1
